# Measurements from ChEMBL document CHEMBL1201862, “PubChem BioAssay data set” (2004).
#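 Dose response: 5 concentrations. Exposure: 48 h. Format: 96-well plates. Endpoint: linear interpolation; highest concentration if not reached. GI50 marks 50% less growth.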 Calls of active or inactive are those of the source. Rule as the data show it: active = GI50 up to about 1.1 µM and inactive = higher.
# Legend:
# Test in all cases: growth of human tumour cells (NCI), 48 h
# NCI-H226 = tested on: NCI-H226
# SN12C = tested on: SN12C
# OVCAR-3 = tested on: OVCAR-3
# A498 = tested on: A498
# SW-620 = tested on: SW-620
# HCT-116 = tested on: HCT-116
# UACC-257 = tested on: UACC-257
# SK-MEL-28 = tested on: SK-MEL-28
# U-251 = tested on: U-251
# NCI/ADR-RES = tested on: NCI/ADR-RES
# MDA-MB-231 = tested on: MDA-MB-231
# PC-3 = tested on: PC-3
# SF-295 = tested on: SF-295
# OVCAR-4 = tested on: OVCAR-4
# MCF7 = tested on: MCF7
# HOP-62 = tested on: HOP-62
# SNB-75 = tested on: SNB-75
# SR = tested on: SR
# UACC-62 = tested on: UACC-62
# T47D = tested on: T47D
Structure (SMILES),GI50 (NCI-H226),GI50 (SN12C),GI50 (OVCAR-3),GI50 (A498),GI50 (SW-620),GI50 (HCT-116),GI50 (UACC-257),GI50 (SK-MEL-28),GI50 (U-251),GI50 (NCI/ADR-RES),GI50 (MDA-MB-231),GI50 (PC-3),GI50 (SF-295),GI50 (OVCAR-4),GI50 (MCF7),GI50 (HOP-62),GI50 (SNB-75),GI50 (SR),GI50 (UACC-62),GI50 (T47D)
C(CCCCc1nnc(N2CCOCC2)o1)CCCc1nnc(N2CCOCC2)o1,> 100 µM (inactive),> 100 µM (inactive),> 100 µM (inactive),> 100 µM (inactive),> 100 µM (inactive),> 100 µM (inactive),> 100 µM (inactive),> 100 µM (inactive),> 100 µM (inactive),> 100 µM (inactive),> 100 µM (inactive),> 100 µM (inactive),> 100 µM (inactive),> 100 µM (inactive),> 100 µM (inactive),> 100 µM (inactive),> 100 µM (inactive),–,–,–
COc1cc(C2SCC(=O)N2c2cccc(Cl)c2)cc(OC)c1OC (centres undefined),> 100 µM (inactive),56.9 µM (inactive),–,> 100 µM (inactive),> 100 µM (inactive),58.9 µM (inactive),> 100 µM (inactive),> 100 µM (inactive),> 100 µM (inactive),71.9 µM (inactive),> 100 µM (inactive),> 100 µM (inactive),43.7 µM (inactive),54.6 µM (inactive),46.8 µM (inactive),–,–,28.4 µM (inactive),11.3 µM (inactive),–
c1csc(-c2ccsc2-c2cccs2)c1,46.8 µM (inactive),> 100 µM (inactive),> 100 µM (inactive),36 µM (inactive),80.4 µM (inactive),92.9 µM (inactive),> 100 µM (inactive),–,> 100 µM (inactive),43.3 µM (inactive),–,–,> 100 µM (inactive),33 µM (inactive),34.6 µM (inactive),> 100 µM (inactive),54.6 µM (inactive),1.18 µM (inactive),> 100 µM (inactive),29.9 µM (inactive)
Cc1c2c(n3c(nc4ccccc43)c1C#N)N(c1ccc(F)cc1)CC2,> 100 µM (inactive),> 100 µM (inactive),> 100 µM (inactive),> 100 µM (inactive),> 100 µM (inactive),> 100 µM (inactive),> 100 µM (inactive),> 100 µM (inactive),> 100 µM (inactive),> 100 µM (inactive),–,> 100 µM (inactive),> 100 µM (inactive),41.4 µM (inactive),> 100 µM (inactive),> 100 µM (inactive),> 100 µM (inactive),> 100 µM (inactive),> 100 µM (inactive),–
Cc1ccc(NC(=O)CC2Sc3ccccc3NC2=O)cc1C (centres undefined),57.9 µM (inactive),> 100 µM (inactive),70.8 µM (inactive),37.9 µM (inactive),> 100 µM (inactive),41.6 µM (inactive),> 100 µM (inactive),> 100 µM (inactive),79.6 µM (inactive),–,–,–,> 100 µM (inactive),56.2 µM (inactive),–,> 100 µM (inactive),39.8 µM (inactive),> 100 µM (inactive),75.3 µM (inactive),–
Cc1nnc2n1N=C(c1cc(F)c(Cl)cc1Cl)/C(=C/c1ccc(-c3ccc([N+](=O)[O-])cc3)o1)S2,–,35.3 µM (inactive),> 100 µM (inactive),> 100 µM (inactive),39.6 µM (inactive),46.1 µM (inactive),> 100 µM (inactive),> 100 µM (inactive),71.8 µM (inactive),> 100 µM (inactive),–,47.4 µM (inactive),> 100 µM (inactive),66.5 µM (inactive),44 µM (inactive),> 100 µM (inactive),–,34.2 µM (inactive),> 100 µM (inactive),28.6 µM (inactive)
CC1(C)C=C(/C=N/Nc2ccccc2)C(C#N)=C(O)C1(C#N)C#N,> 100 µM (inactive),> 100 µM (inactive),> 100 µM (inactive),48.6 µM (inactive),> 100 µM (inactive),> 100 µM (inactive),> 100 µM (inactive),> 100 µM (inactive),–,> 100 µM (inactive),> 100 µM (inactive),36.7 µM (inactive),90.4 µM (inactive),> 100 µM (inactive),> 100 µM (inactive),> 100 µM (inactive),> 100 µM (inactive),31.3 µM (inactive),> 100 µM (inactive),–
CC(C)(C)OC(=O)NC(Cc1ccc(OCc2ccccc2)cn1)C(N)=O (centres undefined),97.3 µM (inactive),> 100 µM (inactive),94.8 µM (inactive),> 100 µM (inactive),> 100 µM (inactive),> 100 µM (inactive),75.2 µM (inactive),> 100 µM (inactive),> 100 µM (inactive),89.9 µM (inactive),> 100 µM (inactive),> 100 µM (inactive),> 100 µM (inactive),45.7 µM (inactive),46.3 µM (inactive),> 100 µM (inactive),> 100 µM (inactive),> 100 µM (inactive),–,–
O=[N+]([O-])c1ccccc1S(=O)(=O)c1ccccc1,88.1 µM (inactive),> 100 µM (inactive),> 100 µM (inactive),> 100 µM (inactive),> 100 µM (inactive),> 100 µM (inactive),> 100 µM (inactive),> 100 µM (inactive),> 100 µM (inactive),–,–,–,> 100 µM (inactive),52.6 µM (inactive),–,> 100 µM (inactive),23 µM (inactive),> 100 µM (inactive),54.7 µM (inactive),–
Cn1c(=O)oc2cc(C(=S)N3CCC(Cc4ccccc4)CC3)ccc21,> 100 µM (inactive),> 100 µM (inactive),> 100 µM (inactive),> 100 µM (inactive),> 100 µM (inactive),> 100 µM (inactive),> 100 µM (inactive),> 100 µM (inactive),64.7 µM (inactive),> 100 µM (inactive),> 100 µM (inactive),> 100 µM (inactive),> 100 µM (inactive),–,> 100 µM (inactive),> 100 µM (inactive),55.6 µM (inactive),72.3 µM (inactive),> 100 µM (inactive),–
Cc1cc(C)c2c(c1)CSCc1cc(C)cc(C)c1-2,38.8 µM (inactive),35.2 µM (inactive),30.3 µM (inactive),28.1 µM (inactive),71.8 µM (inactive),22 µM (inactive),24.8 µM (inactive),1.72 µM (inactive),19.8 µM (inactive),–,–,–,25.6 µM (inactive),39.2 µM (inactive),–,27.6 µM (inactive),37.3 µM (inactive),23.9 µM (inactive),23.4 µM (inactive),–
COC(=O)[C@H](COC(C)(C)C)NC(=O)N[C@H](C)c1ccccc1,> 100 µM (inactive),> 100 µM (inactive),> 100 µM (inactive),> 100 µM (inactive),> 100 µM (inactive),> 100 µM (inactive),> 100 µM (inactive),> 100 µM (inactive),> 100 µM (inactive),> 100 µM (inactive),> 100 µM (inactive),> 100 µM (inactive),> 100 µM (inactive),> 100 µM (inactive),> 100 µM (inactive),> 100 µM (inactive),> 100 µM (inactive),> 100 µM (inactive),> 100 µM (inactive),–
O=C(CCN1CCN(c2cccc(Cl)c2)CC1)N1CCc2c([nH]c3ccccc23)C1c1cccnc1 (centres undefined),18.6 µM (inactive),6.62 µM (inactive),2.47 µM (inactive),0.282 µM (active),> 10 µM (inactive),7.13 µM (inactive),2.81 µM (inactive),11.9 µM (inactive),7.08 µM (inactive),–,–,–,4.72 µM (inactive),2.58 µM (inactive),–,9.1 µM (inactive),9.68 µM (inactive),1.75 µM (inactive),> 10 µM (inactive),–
C[C@@H](Oc1ccc(Oc2cnc3ccc(Cl)cc3n2)cc1)C(=O)O [R(+)XK469],–,> 100 µM (inactive),95.7 µM (inactive),> 100 µM (inactive),85.3 µM (inactive),94.2 µM (inactive),> 100 µM (inactive),> 100 µM (inactive),> 100 µM (inactive),> 100 µM (inactive),–,> 100 µM (inactive),> 100 µM (inactive),> 100 µM (inactive),39 µM (inactive),72.8 µM (inactive),> 100 µM (inactive),> 100 µM (inactive),66.7 µM (inactive),> 100 µM (inactive)
CC(OC1CC(=O)CC2C(=O)C=CC(=O)C12)c1ccccc1 (centres undefined),20 µM (inactive),19 µM (inactive),19.2 µM (inactive),18.1 µM (inactive),13.8 µM (inactive),9.75 µM (inactive),19.1 µM (inactive),20.8 µM (inactive),14.5 µM (inactive),–,–,–,16.6 µM (inactive),18.3 µM (inactive),–,24 µM (inactive),25.6 µM (inactive),19.1 µM (inactive),16.2 µM (inactive),–
COc1cc2c(cc1OC)C(N(C)C)C(c1ccccc1)=C2Cl (centres undefined),21.9 µM (inactive),18.7 µM (inactive),21.3 µM (inactive),22.5 µM (inactive),16.2 µM (inactive),–,18 µM (inactive),18.7 µM (inactive),16.6 µM (inactive),–,–,–,22.8 µM (inactive),27.4 µM (inactive),–,36.4 µM (inactive),20 µM (inactive),4.54 µM (inactive),–,–
